Results taken from patent US7556807B2, “Signal peptides, nucleic acid molecules and methods for treatment of caries” (priority 2001, dated 2009).

How the values were obtained:
[1] = test system: S. mutans wild-type UA159; assay: S. mutans acid resistance assay (growth in THYE at pH 7.5 and pH 5.5); assay type: cell-based, Streptococcus mutans; details: 5 μg/ml of peptide analog; for Growth (pH 7.5): THYE pH 7.5; for Acid resistance (pH 5.5): growth in THYE pH 5.5
Description: The effect of peptides on acid tolerance was evaluated by assessment of growth in THYE at pH 7.5 and pH 5.5. Overnight S. mutans wild-type UA159 cells were diluted (1:20) with prewarmed THYE broth and incubated at 37° C. in air with 5% CO2 until an OD600 of approximately 0.4 was reached. A 20-fold dilution was made into 400 μl of either THYE pH 7.5 or THYE pH 5.5 broth containing different concentrations (0, 0.1, 0.5, 2, and 5 μg per ml) of peptide analogs and added in the individual wells of a 100-well Bioscreen C plate in triplicate. Wells without cells were used as blank controls. A Bioscreen microbiology reader (Labsystems, Helsinki, Finland) was employed to continuously grow cells and measure cell growth for 16 h at 37° C. Measurements were taken every 20 min with shaking to prevent cell aggregation.

[2] = test system: S. mutans comD null mutant; assay: Genetic transformation of S. mutans comD null mutant in presence of H1; assay type: cell-based, Streptococcus mutans; details: different concentrations of H1
Text: An S. mutans UA159 comD null mutant was constructed by a PCR-based deletion strategy involving restriction-ligation and allelic replacement as described previously (Lau et al., 2002). The primers used to construct and confirm the S. mutans comD deletion mutant were P1-HK13 (5′-[…]-3′; SEQ ID NO:52), P2-HK13 (5′-[…]-3′; SEQ ID NO:53), P3-HK13 (5′-[…]-3′; SEQ ID NO:54), P4-HK13 (5′-AGATTATCATTGGC GGAAGCG-3′; SEQ ID NO:55), Erm-19 (5′-[…]-3′; SEQ ID NO:56), and Erm-20 (5′-[…] TAGAAT-3′; SEQ ID NO:57).
To determine if the peptide analogs had any impact on the development of genetic competence, S. mutans UA159 wild-type cells were assayed for genetic transformation. Overnight cultures of S. mutans UA159 were diluted (1:20) with prewarmed THYE broth and incubated at 37° C. in air with 5% CO2 until an optical density (OD) of approximately 0.1 at 600 nm was reached. The culture was then divided into six aliquots containing 1 μg/ml of plasmid pDL289 and different concentrations (0, 0.1, 0.5, 2, and 5 μg per ml) of peptide analogs. […] Total recipient cells were counted by spreading serial dilutions on THYE agar plates without antibiotic. Transformation efficiency was expressed as the percentage of kanamycin resistant transformants over the total number of recipient cells.

[3] = test system: S. mutans wild-type UA159; assay: S. mutans biofilms formed on polystyrene microtiter plates (b), SDM-glucose, safranin (first study); assay type: cell-based, Streptococcus mutans; details: 5 μg/ml of peptide analog; ↓ = reduced biomass compared to biofilm grown in presence of wild-type CSP
Description: Biofilms were developed in 96-well polystyrene microtiter plates. […] Wells without cells were used as blank controls. […] After the incubation, the planktonic cells were carefully removed and the plates were air dried overnight. The plates were then stained with 0.01% (wt/vol) safranin for 10 min, rinsed with sterile distilled water and air dried. Biofilms were quantified by measuring the absorbance of stained biofilms at 490 nm with a microplate reader (model 3550; Bio-Rad Laboratories, Richmond, Calif.).

[4] = test system: S. mutans comC deficient cells; assay: Acid resistance tolerance of S. mutans comC deficient cells with added synthetic CSP (FIG. 12); assay type: cell-based, Streptococcus mutans; details: synthetic CSP added to culture of comC mutant; compared to parent strain NG8
Description: The ability of CSP [SEQ ID NO:11] to promote acid resistance tolerance is determined by measuring the cell survival rate of S. mutans when exposed to acidic pH. In one example, S. mutans are first grown in batch culture to assay acid tolerance response in ‘standard’ log- and stationary-phase cells by using a modification of methods described previously by Svensäter et al. Oral Microbiol. Immunol., 12:266-73. Mid-log-phase cells are obtained by transferring one volume of overnight culture into nine volumes (1:10) of fresh TYG medium (pH 7.5) and incubated at 37° C. with 5% CO2 for 2 hours. These cells are then collected by centrifugation at 8,000×g for 10 min and resuspended in 2 ml of fresh TYG (pH 5.5) at various cell densities as determined by O.D600. The cells are induced for acid adaptation by incubation at pH 5.5 for 2 h at 37° C. with 5% CO2. The adapted log-phase cells are then exposed to the killing pH. Killing pH is pre-determined by incubating unadapted, mid-log phase cells in TYG medium at pH values from 6.0 to 2.0. Stationary-phase cells are prepared by re-suspending late-log phase cells in TY medium (tryptone-yeast extract) without glucose. […] Adaptation of both log- and stationary-phase cells to acidic pH is determined by measuring the ability of bacterial cells to survive a killing pH for 3 h. […]

[5] = test system: S. mutans comC null mutant; details: exogenous addition of synthetic CSP; Li et al., 2002; cited from earlier work

Substance | Growth (pH 7.5) [1] | Acid resistance (pH 5.5) [1] | Effect of H1 on genetic competence in comD null mutant [2] | Bioflim formation (SDM-glucose) [3] | Survival of low pH challenge by comC mutant [4] | Biofilm phenotype of comC defective mutant [5]
H1: S. mutans CSP analog, 4th residue removed from C′ (SGSLSTFFRLFNVSFTQALGK; D2 peptide analog) | no effect | significant decrease in cell growth | ComD-dependent process | no effect | – | –
SGSLSTFFRLFNRSFTQALGK (MKKTLSLKNDFKEIKTDELEIIIGGSGSLSTFFRLFNRSFTQALGK; Streptococcus mutans) [CSP, reference compound] | ↓growth | growth | – | no effect | restored the ability of the mutant to survive a low pH challenge | restores the wild-type phenotype
